The test system of one data set is HT-29. The experiment in a line: Antiproliferative activity against human HT-29 cells after 48 hrs by propidium iodide fluorescence assay. It is filed as functional, cell-based. The conditions noted are these: HT-29, 48 h.
The next data set concerns A-375. In words: Antiproliferative activity against human A375 cells after 48 hrs by propidium iodide fluorescence assay. It is filed as functional, cell-based. The conditions noted are these: A-375, 48 h.
For a further data set, the system named is MIA PaCa-2. The experiment in a line: Antiproliferative activity against human MIAPaCa2 cells after 48 hrs by propidium iodide fluorescence assay. It counts as functional, cell-based. The conditions noted are these: MIA PaCa-2, 48 h.
For the next data set, the system named is PANC-1. In words: Antiproliferative activity against human PANC1 cells after 48 hrs by propidium iodide fluorescence assay. It is filed as functional, cell-based. The conditions noted are these: PANC-1, 48 h.
A short description of data set [1]: Cytotoxicity in human MCF10A cells assessed as cell viability incubated for 4 days by MTT assay. It is filed as cell-based, MCF-10A. Also on record: concentration or dose not given beside the values. The conditions noted are these: read-out: Activity.
Data set [2] deals with NCI-H460. The experiment in a line: Antiproliferative activity against human NCI-H460 cells after 48 hrs by propidium iodide fluorescence assay. The conditions noted are these: NCI-H460, 48 h. It is filed as functional, cell-based.
The target in data set [3] is Epidermal growth factor receptor (Homo sapiens, UniProt P00533). The experiment in a line: Inhibition of His6-tagged EGFR cytoplasmic domain (645 to 1186 residues) (unknown origin) expressed in baculovirus infected Sf9 insect cells after 10 mins by DELFIA/time-resolved fluorometry.
Sequence of Epidermal growth factor receptor (P00533 whole entry, the tested form may be a part): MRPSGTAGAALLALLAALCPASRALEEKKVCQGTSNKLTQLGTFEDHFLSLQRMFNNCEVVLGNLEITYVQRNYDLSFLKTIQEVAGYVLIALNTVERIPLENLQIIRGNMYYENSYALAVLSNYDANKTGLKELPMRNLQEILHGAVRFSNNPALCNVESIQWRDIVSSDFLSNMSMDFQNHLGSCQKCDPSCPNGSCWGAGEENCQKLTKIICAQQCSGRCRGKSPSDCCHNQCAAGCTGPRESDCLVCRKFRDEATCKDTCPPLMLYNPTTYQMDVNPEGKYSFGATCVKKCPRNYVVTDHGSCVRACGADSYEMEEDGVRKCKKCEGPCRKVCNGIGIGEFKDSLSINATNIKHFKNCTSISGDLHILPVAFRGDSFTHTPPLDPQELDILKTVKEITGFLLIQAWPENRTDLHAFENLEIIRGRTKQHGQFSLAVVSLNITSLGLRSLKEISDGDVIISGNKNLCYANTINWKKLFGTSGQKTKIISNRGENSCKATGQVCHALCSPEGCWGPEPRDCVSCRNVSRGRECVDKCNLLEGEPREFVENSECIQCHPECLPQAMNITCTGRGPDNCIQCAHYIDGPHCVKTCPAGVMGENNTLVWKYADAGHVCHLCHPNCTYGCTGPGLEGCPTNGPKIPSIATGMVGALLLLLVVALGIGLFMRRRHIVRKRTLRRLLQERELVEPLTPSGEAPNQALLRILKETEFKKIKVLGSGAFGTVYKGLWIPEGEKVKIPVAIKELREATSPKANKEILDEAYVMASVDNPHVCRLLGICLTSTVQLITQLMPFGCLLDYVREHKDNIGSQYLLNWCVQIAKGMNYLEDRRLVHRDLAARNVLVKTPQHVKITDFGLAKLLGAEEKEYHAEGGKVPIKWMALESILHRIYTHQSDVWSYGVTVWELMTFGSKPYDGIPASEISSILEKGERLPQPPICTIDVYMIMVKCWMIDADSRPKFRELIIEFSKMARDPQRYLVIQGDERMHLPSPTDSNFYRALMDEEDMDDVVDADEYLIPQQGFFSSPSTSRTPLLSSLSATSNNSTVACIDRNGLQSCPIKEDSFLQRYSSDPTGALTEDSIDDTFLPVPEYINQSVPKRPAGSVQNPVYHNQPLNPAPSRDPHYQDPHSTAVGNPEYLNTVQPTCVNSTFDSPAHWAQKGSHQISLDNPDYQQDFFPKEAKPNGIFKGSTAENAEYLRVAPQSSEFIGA
For data set [4], the system named is NCI-H460. The experiment in a line: Cell cycle arrest in human NCI-H460 cells assessed as apoptotic cells at 0.2 uM after 24 hrs by propidium iodide staining-based flow cytometric analysis (reference value: 1.55%). It counts as functional.
Data set [5] deals with NCI-H460. The experiment in a line: Induction of apoptosis in human NCI-H460 cells assessed as late apoptotic cells at 0.2 uM after 24 hrs by Annexin V-FITC/propidium iodide staining-based flow cytometric analysis relative to control. It is filed as functional.
Data set [6] deals with NCI-H460. In words: Induction of apoptosis in human NCI-H460 cells assessed as necrotic cells at 0.2 uM after 24 hrs by Annexin V-FITC/propidium iodide staining-based flow cytometric analysis relative to control. It counts as functional.
In data set [7] the test system is NCI-H460. The experiment in a line: Cell cycle arrest in human NCI-H460 cells assessed as accumulation of cells at G1 phase at 0.2 uM after 24 hrs by propidium iodide staining-based flow cytometric analysis (reference value: 47.39%). It is filed as functional.
Data set [8] has as its system NCI-H460. In words: Cell cycle arrest in human NCI-H460 cells assessed as accumulation of cells at S phase at 0.2 uM after 24 hrs by propidium iodide staining-based flow cytometric analysis (reference value: 42.61%). It is filed as functional.
Data set [9] deals with NCI-H460. The experiment in a line: Cell cycle arrest in human NCI-H460 cells assessed as accumulation of cells at G2 phase at 0.2 uM after 24 hrs by propidium iodide staining-based flow cytometric analysis (reference value: 10%). It is filed as functional.
Data set [10] concerns NCI-H460. The experiment in a line: Induction of apoptosis in human NCI-H460 cells assessed as early apoptotic cells at 0.2 uM after 24 hrs by Annexin V-FITC/propidium iodide staining-based flow cytometric analysis relative to control. It counts as functional.
In data set [11] the target is Serine/threonine-protein kinase Chk2 (Homo sapiens, UniProt O96017). The experiment in a line: Inhibition of CHK2 (unknown origin).
Sequence of Serine/threonine-protein kinase Chk2 (O96017 whole entry): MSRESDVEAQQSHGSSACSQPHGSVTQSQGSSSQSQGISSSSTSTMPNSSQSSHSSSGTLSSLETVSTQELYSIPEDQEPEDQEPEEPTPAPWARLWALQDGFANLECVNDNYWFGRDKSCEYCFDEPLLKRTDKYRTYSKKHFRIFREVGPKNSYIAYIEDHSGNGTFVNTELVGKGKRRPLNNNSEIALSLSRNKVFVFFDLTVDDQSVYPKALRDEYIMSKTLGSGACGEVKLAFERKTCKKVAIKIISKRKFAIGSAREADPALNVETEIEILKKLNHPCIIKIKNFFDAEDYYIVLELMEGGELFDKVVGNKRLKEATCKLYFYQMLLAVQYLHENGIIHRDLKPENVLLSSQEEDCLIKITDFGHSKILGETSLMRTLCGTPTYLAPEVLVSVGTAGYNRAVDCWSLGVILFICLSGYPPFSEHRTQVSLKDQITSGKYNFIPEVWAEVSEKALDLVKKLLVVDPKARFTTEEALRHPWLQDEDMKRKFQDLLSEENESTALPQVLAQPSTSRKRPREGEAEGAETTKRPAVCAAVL
For data set [12], the target named is Vascular endothelial growth factor receptor 1 (Homo sapiens, UniProt P17948). The experiment in a line: Inhibition of VEGFR1 (unknown origin).
Sequence of Vascular endothelial growth factor receptor 1 (P17948 whole entry): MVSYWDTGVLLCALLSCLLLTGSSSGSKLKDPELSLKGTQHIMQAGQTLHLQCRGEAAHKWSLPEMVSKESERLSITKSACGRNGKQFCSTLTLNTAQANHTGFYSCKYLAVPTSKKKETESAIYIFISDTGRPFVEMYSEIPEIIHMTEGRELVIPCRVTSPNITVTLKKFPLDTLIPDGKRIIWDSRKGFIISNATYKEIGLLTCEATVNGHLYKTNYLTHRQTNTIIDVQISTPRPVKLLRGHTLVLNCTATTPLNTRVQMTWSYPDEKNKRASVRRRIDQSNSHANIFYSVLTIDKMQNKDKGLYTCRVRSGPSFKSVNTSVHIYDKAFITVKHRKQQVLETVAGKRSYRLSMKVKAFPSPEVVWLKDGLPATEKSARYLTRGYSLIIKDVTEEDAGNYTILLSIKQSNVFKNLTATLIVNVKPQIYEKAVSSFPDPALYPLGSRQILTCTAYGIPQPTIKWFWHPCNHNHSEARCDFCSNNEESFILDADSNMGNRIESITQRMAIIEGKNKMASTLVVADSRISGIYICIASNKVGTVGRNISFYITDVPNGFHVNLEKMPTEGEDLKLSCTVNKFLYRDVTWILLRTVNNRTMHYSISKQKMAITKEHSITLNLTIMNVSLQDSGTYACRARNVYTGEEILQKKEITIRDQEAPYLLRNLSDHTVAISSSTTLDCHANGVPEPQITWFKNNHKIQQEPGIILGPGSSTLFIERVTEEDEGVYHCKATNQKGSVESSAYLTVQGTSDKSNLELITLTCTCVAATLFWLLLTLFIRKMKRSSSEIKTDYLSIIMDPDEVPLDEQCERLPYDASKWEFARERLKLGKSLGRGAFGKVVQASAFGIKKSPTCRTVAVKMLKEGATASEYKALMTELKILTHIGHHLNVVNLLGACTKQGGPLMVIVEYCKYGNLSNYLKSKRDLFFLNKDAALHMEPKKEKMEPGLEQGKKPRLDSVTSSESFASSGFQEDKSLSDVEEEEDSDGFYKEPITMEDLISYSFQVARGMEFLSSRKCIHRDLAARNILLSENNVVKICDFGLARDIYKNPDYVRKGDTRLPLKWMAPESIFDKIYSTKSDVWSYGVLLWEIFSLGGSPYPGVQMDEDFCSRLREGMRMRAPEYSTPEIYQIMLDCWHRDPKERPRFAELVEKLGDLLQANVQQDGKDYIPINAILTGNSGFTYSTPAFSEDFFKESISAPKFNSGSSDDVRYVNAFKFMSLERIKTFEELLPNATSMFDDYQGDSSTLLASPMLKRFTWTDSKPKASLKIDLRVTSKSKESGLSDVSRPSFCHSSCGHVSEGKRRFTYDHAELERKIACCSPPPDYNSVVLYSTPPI

We go through 16 compounds from ChEMBL document CHEMBL4368931, “Discovery of novel thienoquinoline-2-carboxamide chalcone derivatives as antiproliferative EGFR tyrosine kinase inhibitors” (Bioorg Med Chem, 2019).

For the compound `Cc1ccc2nc3sc(C(=O)Nc4ccc(C(=O)/C=C/c5ccc(Cl)cc5)cc4)cc3cc2c1`, the IC50 with HT-29 was determined as 11.6 µM; with A-375, 39.6 µM; in the data set with MIA PaCa-2, 9.4 µM; in the data set with PANC-1, 9.6 µM; in the data set with NCI-H460 [2], 9.2 µM. The viability at 96 h in [1] is above 91%.
As for `COc1cc(/C=C/C(=O)c2ccc(NC(=O)c3cc4cc5ccccc5nc4s3)cc2)cc(OC)c1OC`, the IC50 with HT-29 stood at 2.5 µM; in the data set on A-375, 4.2 µM; in the data set on MIA PaCa-2, 1.7 µM; in the data set with PANC-1 it was 1.4 µM; in data set [3], 1.2 µM; in the data set on NCI-H460 [2] it was 2.7 µM. Also, the viability at 96 h in data set [1] is above 91%.
In the case of `O=C(/C=C/c1ccc(Cl)cc1)c1ccc(NC(=O)c2cc3cc4ccccc4nc3s2)cc1`, the IC50 in the data set on HT-29 was 7.9 µM; in the data set with A-375, 19.4 µM; with MIA PaCa-2 it was 6.2 µM; in the data set on PANC-1, 5.9 µM; in the data set with NCI-H460 [2], 6.7 µM. Further, in data set [1], the viability at 96 h was above 91%.
Consider `Cc1ccc2nc3sc(C(=O)Nc4ccc(C(=O)/C=C/c5ccccc5)cc4)cc3cc2c1`, for which the IC50 with HT-29 worked out at 10.4 µM; in the data set on A-375, 25.9 µM; with MIA PaCa-2 it was 9.2 µM; in the data set on PANC-1, 9.5 µM; with NCI-H460 [2], 9.7 µM. For the same compound, the viability at 96 h in data set [1] is above 91%.
For `COc1ccc(/C=C/C(=O)c2ccc(NC(=O)c3cc4cc5cc(C)ccc5nc4s3)cc2)cc1OC`, the Activity in the data set on NCI-H460 [4] came to 15.72%; in the data set with NCI-H460 [5], 9.08%; in the data set with NCI-H460 [6], 2.31%; with NCI-H460 [7] it was 44.24%; in the data set on NCI-H460 [8] it was 17.45%; with NCI-H460 [9], 38.31%. The Activity with NCI-H460 [10] is 7.22%. For the same compound, the IC50 is 1 µM in the data set with HT-29; 2 µM in the data set with A-375; 0.9 µM in the data set with MIA PaCa-2; 1.2 µM in the data set on PANC-1; 0.5 µM in data set [3]; 0.9 µM with NCI-H460 [2]. Moreover, the viability at 96 h in data set [1] was above 91%.
Consider `O=C(/C=C/c1ccccc1)c1ccc(NC(=O)c2cc3cc4ccccc4nc3s2)cc1`, for which the IC50 was 14.9 µM in the data set on HT-29, above 50 µM with A-375 and 12.5 µM in the data set with MIA PaCa-2. Moreover, the viability at 96 h in [1] was above 91%.
As for `COc1ccc(/C=C/C(=O)c2ccc(NC(=O)c3cc4cc5ccccc5nc4s3)cc2)cc1OC`, the half-maximal inhibitory concentration (IC50) came to 1.1 µM in the data set with HT-29; 2.4 µM in the data set on A-375; 0.5 µM in the data set on MIA PaCa-2; 1.6 µM in [3]; 1.2 µM with NCI-H460 [2]. Also, the viability at 96 h in data set [1] is above 91%.
For `CCCCNc1ncnc2c1sc1nc3ccccc3cc12`, the figures for the IC50 in [11] and in [12] were 1.7 µM and 0.54 µM, respectively.
With `COc1ccc2nc3sc(C(=O)Nc4ccc(C(=O)/C=C/c5ccccc5)cc4)cc3cc2c1`, the IC50 in the data set with HT-29 is 7.8 µM; in the data set on A-375, 16.7 µM; in the data set with MIA PaCa-2, 5.9 µM; in the data set with PANC-1, 5.5 µM; with NCI-H460 [2], 6.5 µM. Besides, the viability at 96 h in data set [1] is above 91%.
Regarding `COc1cc(/C=C/C(=O)c2ccc(NC(=O)c3cc4cc5cc(C)ccc5nc4s3)cc2)cc(OC)c1OC`, the IC50 was 3.7 µM in the data set with HT-29; 6.4 µM in the data set with A-375; 2 µM in the data set with MIA PaCa-2; 2.2 µM in the data set on PANC-1; 3.2 µM in data set [3]; 3.2 µM with NCI-H460 [2]. Moreover, the viability at 96 h in data set [1] is above 91%.
In the case of `COc1ccc2nc3sc(C(=O)Nc4ccc(C(=O)/C=C/c5ccc(OC)c(OC)c5)cc4)cc3cc2c1`, the IC50 in the data set on HT-29 stood at 0.5 µM; in the data set on A-375 it was 1.6 µM; in the data set on MIA PaCa-2, 0.8 µM; with PANC-1 it was 1 µM; in [3] it was 0.7 µM; with NCI-H460 [2], 0.2 µM. The viability at 96 h in data set [1] is above 91%.
In the case of `COc1cccc(/C=C/C(=O)c2ccc(NC(=O)c3cc4cc5cc(OC)ccc5nc4s3)cc2)c1`, the IC50 is 6.7 µM with HT-29; above 50 µM in the data set with A-375; 4.9 µM in the data set with MIA PaCa-2; 4.5 µM with PANC-1; 2.8 µM in data set [3]; 5.5 µM in the data set with NCI-H460 [2]. For the same compound, the viability at 96 h in data set [1] was above 91%.
As to `COc1ccc2nc3sc(C(=O)Nc4ccc(C(=O)/C=C/c5cc(OC)c(OC)c(OC)c5)cc4)cc3cc2c1`, the IC50 with HT-29 was found to be 1.4 µM; with A-375, 3.8 µM; in the data set on MIA PaCa-2, 1 µM; in the data set on PANC-1, 1.4 µM; in [3] it was 1.4 µM; in the data set with NCI-H460 [2], 1.9 µM. Moreover, the viability at 96 h in data set [1] is above 91%.
As to `COc1cccc(/C=C/C(=O)c2ccc(NC(=O)c3cc4cc5ccccc5nc4s3)cc2)c1`, the half-maximal inhibitory concentration (IC50) in the data set on HT-29 was found to be 9.4 µM; with A-375, 28.4 µM; with MIA PaCa-2, 6.2 µM; with PANC-1 it was 6.7 µM; in the data set with NCI-H460 [2], 9.7 µM. The viability at 96 h in data set [1] is above 91%.
On to `COc1ccc2nc3sc(C(=O)Nc4ccc(C(=O)/C=C/c5ccc(Cl)cc5)cc4)cc3cc2c1`, for which the 50% inhibitory concentration (IC50) in the data set on HT-29 is 17.2 µM; in the data set on A-375, 44.6 µM; in the data set with MIA PaCa-2 it was 14.4 µM; in the data set with PANC-1, 13.8 µM; in the data set on NCI-H460 [2] it was 12.2 µM. Also, in data set [1], the viability at 96 h is above 91%.
Turning to `COc1cccc(/C=C/C(=O)c2ccc(NC(=O)c3cc4cc5cc(C)ccc5nc4s3)cc2)c1`, the IC50 in the data set with HT-29 was found to be 4.2 µM; in the data set with A-375, 17.6 µM; in the data set on MIA PaCa-2 it was 3.7 µM; with PANC-1, 3.5 µM; in data set [3] it was 2.9 µM; in the data set with NCI-H460 [2], 3.6 µM. Moreover, the viability at 96 h in data set [1] was above 91%.
